Assays:
chickweed [1] = assay: Test Example 4: herbicidal effect by soil treatment (Table 19, symbol P); format: in vivo, common chickweed (Stellaria media); conditions: amount of applied herbicide 320 g/ha
Outline: (§1)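 Herbicidal effect was rated 3 weeks after treatment, using the scoring criteria of an earlier test. The compound, formulated as an emulsion and diluted in water to a set herbicide amount, had been sprayed uniformly on soil over freshly sown seeds. Growth took place in a greenhouse at 25° C. to 30° C.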

rice flat sedge = assay: Test Example 3: herbicidal effect by foliage application, Wagner pot (Table 18, symbol E); format: in vivo, rice flat sedge (Cyperus iria); conditions: 320 g/ha
Outline: (§2)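 Plants were sown in alluvial soil held under 0.1–0.5 cm standing water and grown 14 days in a greenhouse at 25–30 °C. An emulsifiable formulation, water-diluted to the set dose, was then sprayed onto the foliage, and effects were scored three weeks later using previously defined criteria.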

southern crabgrass [2] = assay: Test Example 4: herbicidal effect by soil treatment (Table 19, symbol F); format: in vivo, southern crabgrass (Digitaria ciliaris); conditions: amount of applied herbicide 320 g/ha
Outline: as §1

barnyard grass [3] = assay: Test Example 5: herbicidal effect by foliage application, plastic box (Table 20, symbol H); format: in vivo, barnyard grass (Echinochloa crus-galli); conditions: foliage application after 14-day growth, evaluated three weeks after application
Outline: (§3)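 Foliar spray test: emulsion formulation diluted in water to a set application rate, sprayed onto 14-day-old plants raised in diluvial soil at 25° C to 30° C under glass. Both herbicidal effect and crop effect rated visually three weeks later.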

lambsquarters [4] = assay: Test Example 4: herbicidal effect by soil treatment (Table 19, symbol O); format: in vivo, lambsquarters (Chenopodium album); conditions: amount of applied herbicide 320 g/ha
Outline: as §1

persian speedwell [5] = assay: Test Example 4: herbicidal effect by soil treatment (Table 19, symbol R); format: in vivo, Persian speedwell (Veronica persica); conditions: amount of applied herbicide 320 g/ha
Outline: as §1

redroot pigweed [6] = assay: Test Example 5: herbicidal effect by foliage application, plastic box (Table 20, symbol N); format: in vivo, redroot pigweed (Amaranthus retroflexus); conditions: foliage application after 14-day growth, evaluated three weeks after application
Outline: as §3

Italian ryegrass [7] = assay: Test Example 4: herbicidal effect by soil treatment (Table 19, symbol K); format: in vivo, Italian ryegrass (Lolium multiflorum); conditions: amount of applied herbicide 320 g/ha
Outline: as §1

Chinese sprangletop = assay: Test Example 3: herbicidal effect by foliage application, Wagner pot (Table 18, symbol D); format: in vivo, chinese sprangletop (Leptochloa chinensis); conditions: 320 g/ha
Outline: as §2

blackgrass [8] = assay: Test Example 5: herbicidal effect by foliage application, plastic box (Table 20, symbol J); format: in vivo, blackgrass (Alopecurus myosuroides); conditions: foliage application after 14-day growth, evaluated three weeks after application
Outline: as §3

redroot pigweed [9] = assay: Test Example 4: herbicidal effect by soil treatment (Table 19, symbol N); format: in vivo, redroot pigweed (Amaranthus retroflexus); conditions: amount of applied herbicide 320 g/ha
Outline: as §1

barnyard grass [10] = assay: Test Example 4: herbicidal effect by soil treatment (Table 19, symbol H); format: in vivo, barnyard grass (Echinochloa crus-galli); conditions: amount of applied herbicide 320 g/ha
Outline: as §1

green foxtail [11] = assay: Test Example 5: herbicidal effect by foliage application, plastic box (Table 20, symbol G); format: in vivo, green foxtail (Setaria viridis); conditions: foliage application after 14-day growth, evaluated three weeks after application
Outline: as §3

lambsquarters [12] = assay: Test Example 5: herbicidal effect by foliage application, plastic box (Table 20, symbol O); format: in vivo, lambsquarters (Chenopodium album); conditions: foliage application after 14-day growth, evaluated three weeks after application
Outline: as §3

chickweed [13] = assay: Test Example 5: herbicidal effect by foliage application, plastic box (Table 20, symbol P); format: in vivo, common chickweed (Stellaria media); conditions: foliage application after 14-day growth, evaluated three weeks after application
Outline: as §3

windgrass [14] = assay: Test Example 5: herbicidal effect by foliage application, plastic box (Table 20, symbol L); format: in vivo, windgrass (Apera spica-venti); conditions: foliage application after 14-day growth, evaluated three weeks after application
Outline: as §3

wild oat [15] = assay: Test Example 4: herbicidal effect by soil treatment (Table 19, symbol I); format: in vivo, wild oat (Avena fatua); conditions: amount of applied herbicide 320 g/ha
Outline: as §1

windgrass [16] = assay: Test Example 4: herbicidal effect by soil treatment (Table 19, symbol L); format: in vivo, windgrass (Apera spica-venti); conditions: amount of applied herbicide 320 g/ha
Outline: as §1

wild oat [17] = assay: Test Example 5: herbicidal effect by foliage application, plastic box (Table 20, symbol I); format: in vivo, wild oat (Avena fatua); conditions: foliage application after 14-day growth, evaluated three weeks after application
Outline: as §3

barnyard grass [18] = assay: Test Example 3: herbicidal effect by foliage application, Wagner pot (Table 18, symbol H); format: in vivo, barnyard grass (Echinochloa crus-galli); conditions: 320 g/ha
Outline: as §2

velvetleaf [19] = assay: Test Example 5: herbicidal effect by foliage application, plastic box (Table 20, symbol M); format: in vivo, velvetleaf (Abutilon theophrasti); conditions: foliage application after 14-day growth, evaluated three weeks after application
Outline: as §3

blackgrass [20] = assay: Test Example 4: herbicidal effect by soil treatment (Table 19, symbol J); format: in vivo, blackgrass (Alopecurus myosuroides); conditions: amount of applied herbicide 320 g/ha
Outline: as §1

southern crabgrass [21] = assay: Test Example 5: herbicidal effect by foliage application, plastic box (Table 20, symbol F); format: in vivo, southern crabgrass (Digitaria ciliaris); conditions: foliage application after 14-day growth, evaluated three weeks after application
Outline: as §3

Italian ryegrass [22] = assay: Test Example 5: herbicidal effect by foliage application, plastic box (Table 20, symbol K); format: in vivo, Italian ryegrass (Lolium multiflorum); conditions: foliage application after 14-day growth, evaluated three weeks after application
Outline: as §3

green foxtail [23] = assay: Test Example 4: herbicidal effect by soil treatment (Table 19, symbol G); format: in vivo, green foxtail (Setaria viridis); conditions: amount of applied herbicide 320 g/ha
Outline: as §1

velvetleaf [24] = assay: Test Example 4: herbicidal effect by soil treatment (Table 19, symbol M); format: in vivo, velvetleaf (Abutilon theophrasti); conditions: amount of applied herbicide 320 g/ha
Outline: as §1

persian speedwell [25] = assay: Test Example 5: herbicidal effect by foliage application, plastic box (Table 20, symbol R); format: in vivo, Persian speedwell (Veronica persica); conditions: foliage application after 14-day growth, evaluated three weeks after application
Outline: as §3

[26] = amount of applied herbicide 320 g/ha

| SMILES | Herbicidal effect by soil treatment, P: chickweed (chickweed [1]) | herbicidal effect on rice flat sedge (E) (rice flat sedge) | Herbicidal effect by soil treatment, F: southern crabgrass (southern crabgrass [2]) | Herbicidal effect by soil treatment, O: lambsquarters (lambsquarters [4]) | Herbicidal effect by soil treatment, R: persian speedwell (persian speedwell [5]) | Herbicidal effect by soil treatment, K: Italian ryegrass (Italian ryegrass [7]) | herbicidal effect on Chinese sprangletop (D) (Chinese sprangletop) | Herbicidal effect by soil treatment, N: redroot pigweed (redroot pigweed [9]) | Herbicidal effect by soil treatment, H: barnyard grass (barnyard grass [10]) | Herbicidal effect by soil treatment, I: wild oat (wild oat [15]) | Herbicidal effect by soil treatment, L: windgrass (windgrass [16]) | herbicidal effect on barnyard grass (H) (barnyard grass [18]) | Herbicidal effect by soil treatment, J: blackgrass (blackgrass [20]) | Herbicidal effect by soil treatment, G: green foxtail (green foxtail [23]) | Herbicidal effect by soil treatment, M: velvetleaf (velvetleaf [24]) | further results |
| --- | --- | --- | --- | --- | --- | --- | --- | --- | --- | --- | --- | --- | --- | --- | --- | --- |
| CCCC(=O)Oc1c(C)nn(C)c(=O)c1-c1c(-c2ccccc2F)sc2c(Cl)cccc12 [4-059] | 4 (Herbicidal rate of 70% or more and less than 90%) | 4 (Herbicidal rate of 70% or more and less than 90%) | 0 (Herbicidal rate of 5% or less (almost no effect)) | 0 (Herbicidal rate of 5% or less (almost no effect)) | 4 (Herbicidal rate of 70% or more and less than 90%) | 0 (Herbicidal rate of 5% or less (almost no effect)) | 4 (Herbicidal rate of 70% or more and less than 90%) | 0 (Herbicidal rate of 5% or less (almost no effect)) | 0 (Herbicidal rate of 5% or less (almost no effect)) | 0 (Herbicidal rate of 5% or less (almost no effect)) | 0 (Herbicidal rate of 5% or less (almost no effect)) | 4 (Herbicidal rate of 70% or more and less than 90%) | 0 (Herbicidal rate of 5% or less (almost no effect)) | 0 (Herbicidal rate of 5% or less (almost no effect)) | 0 (Herbicidal rate of 5% or less (almost no effect)) | herbicidal effect on H: barnyard grass (evaluation grade 0-5) (barnyard grass [3]; 320 g/ha): 0 (Herbicidal rate of 5% or less (almost no effect)); herbicidal effect on N: redroot pigweed (evaluation grade 0-5) (redroot pigweed [6]; 320 g/ha): 3 (Herbicidal rate of 40% or more and less than 70%); herbicidal effect on J: blackgrass (evaluation grade 0-5) (blackgrass [8]; 320 g/ha): 0 (Herbicidal rate of 5% or less (almost no effect)); herbicidal effect on G: green foxtail (evaluation grade 0-5) (green foxtail [11]; 320 g/ha): 0 (Herbicidal rate of 5% or less (almost no effect)); herbicidal effect on O: lambsquarters (evaluation grade 0-5) (lambsquarters [12]; 320 g/ha): 2 (Herbicidal rate of 20% or more and less than 40%); herbicidal effect on P: chickweed (evaluation grade 0-5) (chickweed [13]; 320 g/ha): 5 (Herbicidal rate of 90% or more (almost completely withered)); herbicidal effect on L: windgrass (evaluation grade 0-5) (windgrass [14]; 320 g/ha): 0 (Herbicidal rate of 5% or less (almost no effect)); herbicidal effect on I: wild oat (evaluation grade 0-5) (wild oat [17]; 320 g/ha): 1 (Herbicidal rate of 5% or more and less than 20%); herbicidal effect on M: velvetleaf (evaluation grade 0-5) (velvetleaf [19]; 320 g/ha): 3 (Herbicidal rate of 40% or more and less than 70%); herbicidal effect on F: southern crabgrass (evaluation grade 0-5) (southern crabgrass [21]; 320 g/ha): 0 (Herbicidal rate of 5% or less (almost no effect)); herbicidal effect on K: Italian ryegrass (evaluation grade 0-5) (Italian ryegrass [22]; 320 g/ha): 0 (Herbicidal rate of 5% or less (almost no effect)); herbicidal effect on R: persian speedwell (evaluation grade 0-5) (persian speedwell [25]; 320 g/ha): 4 (Herbicidal rate of 70% or more and less than 90%) |
| CSc1ccc(-c2sc3c(Cl)cccc3c2-c2c(O)c(C)nn(C)c2=O)cc1 [4-088] | 0 (Herbicidal rate of 5% or less (almost no effect)) | 5 (Herbicidal rate of 90% or more (almost completely withered)) | 0 (Herbicidal rate of 5% or less (almost no effect)) | 4 (Herbicidal rate of 70% or more and less than 90%) | 3 (Herbicidal rate of 40% or more and less than 70%) | 3 (Herbicidal rate of 40% or more and less than 70%) | 3 (Herbicidal rate of 40% or more and less than 70%) | 5 (Herbicidal rate of 90% or more (almost completely withered)) | 0 (Herbicidal rate of 5% or less (almost no effect)) | 0 (Herbicidal rate of 5% or less (almost no effect)) | 0 (Herbicidal rate of 5% or less (almost no effect)) | 5 (Herbicidal rate of 90% or more (almost completely withered)) | 0 (Herbicidal rate of 5% or less (almost no effect)) | 0 (Herbicidal rate of 5% or less (almost no effect)) | 0 (Herbicidal rate of 5% or less (almost no effect)) | Herbicidal effect by foliage application, H: barnyard grass (barnyard grass [3]; [26]): 3 (Herbicidal rate of 40% or more and less than 70%); Herbicidal effect by foliage application, N: redroot pigweed (redroot pigweed [6]; [26]): 5 (Herbicidal rate of 90% or more (almost completely withered)); Herbicidal effect by foliage application, J: blackgrass (blackgrass [8]; [26]): 2 (Herbicidal rate of 20% or more and less than 40%); Herbicidal effect by foliage application, G: green foxtail (green foxtail [11]; [26]): 2 (Herbicidal rate of 20% or more and less than 40%); Herbicidal effect by foliage application, O: lambsquarters (lambsquarters [12]; [26]): 5 (Herbicidal rate of 90% or more (almost completely withered)); Herbicidal effect by foliage application, P: chickweed (chickweed [13]; [26]): 5 (Herbicidal rate of 90% or more (almost completely withered)); Herbicidal effect by foliage application, L: windgrass (windgrass [14]; [26]): 5 (Herbicidal rate of 90% or more (almost completely withered)); Herbicidal effect by foliage application, I: wild oat (wild oat [17]; [26]): 4 (Herbicidal rate of 70% or more and less than 90%); Herbicidal effect by foliage application, M: velvetleaf (velvetleaf [19]; [26]): 5 (Herbicidal rate of 90% or more (almost completely withered)); Herbicidal effect by foliage application, F: southern crabgrass (southern crabgrass [21]; [26]): 0 (Herbicidal rate of 5% or less (almost no effect)); Herbicidal effect by foliage application, K: Italian ryegrass (Italian ryegrass [22]; [26]): 4 (Herbicidal rate of 70% or more and less than 90%); Herbicidal effect by foliage application, R: persian speedwell (persian speedwell [25]; [26]): 5 (Herbicidal rate of 90% or more (almost completely withered)) |

Source: US20230085307A1, “PYRIDAZINONE COMPOUND AND HERBICIDE” (NISSAN CHEMICAL CORPORATION, priority 2019, published 2023)
